Experimental data published in US7998989B2, “2-Imino-1,3-thiazoline-based compounds and T-type calcium channel inhibitors containing the same” (Korea Institute of Science and Technology, priority 2007, dated 2011).

Assays:
[1] = biological target: T1, α1G T-type calcium channel (Homo sapiens, UniProt O43497); assay: Assay for % inhibiting activity against T-type calcium channel using FDSS6000 (fluo-3 calcium imaging, KCl activation); type: cell-based; conditions: HEK293, 10 μM; HEK293 cells stably expressing α1G T-type calcium channel and Kir2.1; compounds of the examples; read-out: FDSS (% inhibition)/10uM
T1 construct: host or cells: HEK293
T1 sequence (O43497 whole entry): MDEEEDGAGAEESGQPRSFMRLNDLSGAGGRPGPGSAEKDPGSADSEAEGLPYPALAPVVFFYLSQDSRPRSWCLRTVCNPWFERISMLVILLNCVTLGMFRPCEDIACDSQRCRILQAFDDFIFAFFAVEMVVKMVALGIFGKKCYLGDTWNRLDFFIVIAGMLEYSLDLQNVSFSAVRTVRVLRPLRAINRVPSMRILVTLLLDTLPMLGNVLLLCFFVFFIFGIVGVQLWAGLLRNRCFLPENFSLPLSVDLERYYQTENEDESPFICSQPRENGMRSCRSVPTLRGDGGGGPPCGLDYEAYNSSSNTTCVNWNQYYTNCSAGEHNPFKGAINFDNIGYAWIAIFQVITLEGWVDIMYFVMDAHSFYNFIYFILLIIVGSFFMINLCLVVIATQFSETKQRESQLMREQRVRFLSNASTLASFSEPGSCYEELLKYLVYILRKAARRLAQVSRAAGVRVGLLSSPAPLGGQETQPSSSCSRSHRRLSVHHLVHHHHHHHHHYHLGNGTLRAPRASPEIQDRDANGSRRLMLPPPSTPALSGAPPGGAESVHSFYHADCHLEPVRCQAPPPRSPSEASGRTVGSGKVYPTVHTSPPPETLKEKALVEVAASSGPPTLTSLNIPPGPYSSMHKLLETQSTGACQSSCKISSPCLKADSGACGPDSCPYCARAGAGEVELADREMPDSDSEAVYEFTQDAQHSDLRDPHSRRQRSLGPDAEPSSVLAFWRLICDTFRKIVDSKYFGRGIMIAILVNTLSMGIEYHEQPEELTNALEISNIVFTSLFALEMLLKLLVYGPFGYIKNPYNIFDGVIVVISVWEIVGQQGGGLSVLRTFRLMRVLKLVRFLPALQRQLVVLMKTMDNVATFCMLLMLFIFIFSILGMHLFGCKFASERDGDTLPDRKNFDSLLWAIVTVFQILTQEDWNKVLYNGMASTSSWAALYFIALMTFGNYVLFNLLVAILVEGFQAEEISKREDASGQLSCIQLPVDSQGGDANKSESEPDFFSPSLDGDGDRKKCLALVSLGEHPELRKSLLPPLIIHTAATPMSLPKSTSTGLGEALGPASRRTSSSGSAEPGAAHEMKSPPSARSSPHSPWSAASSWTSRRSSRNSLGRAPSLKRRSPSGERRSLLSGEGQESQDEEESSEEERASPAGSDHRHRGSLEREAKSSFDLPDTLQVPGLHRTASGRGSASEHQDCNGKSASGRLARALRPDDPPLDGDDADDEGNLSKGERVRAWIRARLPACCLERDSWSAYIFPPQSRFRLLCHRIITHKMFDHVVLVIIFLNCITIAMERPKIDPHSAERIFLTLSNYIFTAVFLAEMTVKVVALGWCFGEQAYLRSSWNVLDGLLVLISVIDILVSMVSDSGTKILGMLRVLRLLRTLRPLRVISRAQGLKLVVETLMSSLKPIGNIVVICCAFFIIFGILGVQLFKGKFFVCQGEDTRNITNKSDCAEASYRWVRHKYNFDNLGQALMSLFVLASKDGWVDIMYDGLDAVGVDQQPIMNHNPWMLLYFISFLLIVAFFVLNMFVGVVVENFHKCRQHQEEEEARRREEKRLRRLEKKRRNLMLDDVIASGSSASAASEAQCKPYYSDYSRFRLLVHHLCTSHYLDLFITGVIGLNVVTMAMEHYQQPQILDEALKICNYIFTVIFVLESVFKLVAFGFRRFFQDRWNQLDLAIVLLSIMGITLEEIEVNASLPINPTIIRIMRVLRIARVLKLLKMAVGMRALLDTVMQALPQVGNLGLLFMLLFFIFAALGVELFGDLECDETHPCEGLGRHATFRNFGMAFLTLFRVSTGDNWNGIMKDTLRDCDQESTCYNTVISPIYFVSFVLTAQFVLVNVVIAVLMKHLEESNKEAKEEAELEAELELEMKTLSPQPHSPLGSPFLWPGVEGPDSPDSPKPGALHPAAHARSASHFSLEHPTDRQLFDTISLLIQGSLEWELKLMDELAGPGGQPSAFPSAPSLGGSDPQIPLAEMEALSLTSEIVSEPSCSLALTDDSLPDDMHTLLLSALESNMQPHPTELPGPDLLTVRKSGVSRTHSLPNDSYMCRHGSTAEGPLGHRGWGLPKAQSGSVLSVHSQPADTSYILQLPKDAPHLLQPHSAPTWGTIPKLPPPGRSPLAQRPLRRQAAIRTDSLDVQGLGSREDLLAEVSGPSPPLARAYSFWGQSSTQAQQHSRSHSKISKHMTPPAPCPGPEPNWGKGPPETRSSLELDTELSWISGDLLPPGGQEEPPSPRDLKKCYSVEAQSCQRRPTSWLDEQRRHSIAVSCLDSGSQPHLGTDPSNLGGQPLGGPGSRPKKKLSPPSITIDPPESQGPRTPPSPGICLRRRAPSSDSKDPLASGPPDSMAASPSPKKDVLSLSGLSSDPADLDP
Outline: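 HEK293 cells stably expressing α1G and Kir2.1 loaded with 5 μM fluo-3/AM, then in HEPES buffer (pH 7.4) with 10 mM CaCl2. Compound applied 75 s before 75 mM KCl; intracellular Ca2+ read as […] area, % inhibition relative to untreated control.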

Compound	melting point [°C]	inhibition at 10 µM [1] [%]
CN1C(=NC2CCCCCC2)SCC1CC(=O)Nc1ccc([N+](=O)[O-])cc1.Cl (stereo not drawn) [KHG24445, (2-cycloheptylimino-3-methyl-1,3-thiazolidine-4-yl)-N-(4-nitrophenyl)-acetamide hydrochloride]	242	50.8
CC1SC(=NC2CCCCC2)N(C)C1CC(=O)Nc1cc(Cl)cc(Cl)c1 (stereo not drawn) [KHG24483, (2-cyclohexylimino-3,5-dimethyl-1,3-thiazolidine-4-yl)-N-(3,5-dichlorophenyl)-acetamide]	264 to 265	52.5
CC1SC(=NC2CCCCC2)N(C)C1CC(=O)Nc1cc([N+](=O)[O-])ccc1F (stereo not drawn) [KHG24484, (2-cyclohexylimino-3,5-dimethyl-1,3-thiazolidine-4-yl)-N-(2-fluoro-5-nitrophenyl)-acetamide]	249 to 251	32.8
CC1SC(=NC2CCCCCC2)N(C)C1CC(=O)Nc1ccc(C(F)(F)F)cc1.Cl (stereo not drawn) [KHG24520, (2-cycloheptylimino-3,5-dimethyl-1,3-thiazolidine-4-yl)-N-(4-trifluoromethylphenyl)-acetamide hydrochloride]	261 to 263	64.8
CC1SC(=NC2CCCCC2)N(C)C1CC(=O)Nc1cc(CF)cc(CF)c1.Cl (stereo not drawn) [KHG24522, (2-cyclohexylimino-3,5-dimethyl-1,3-thiazolidine-4-yl)-N-(3,5-difluoromethylphenyl)-acetamide hydrochloride]	244 to 246	47.9
CC(C)c1cccc(NC(=O)CC2CSC(=NC3CCCCC3)N2C)c1.Cl (stereo not drawn) [KHG24528, (2-cyclohexylimino-3-methyl-1,3-thiazolidine-4-yl)-N-(3-isopropylphenyl)-acetamide hydrochloride]	160	54.2
CN1C(=NC2CCCCC2)SCC1CC(=O)Nc1cccc(Cl)c1Cl.Cl (stereo not drawn) [KHG24530, (2-cyclohexylimino-3-methyl-1,3-thiazolidine-4-yl)-N-(2,3-dichlorophenyl)-acetamide hydrochloride]	215	38.5
CN1C(=NC2CCCCC2)SCC1CC(=O)Nc1ccc(Cl)c(Cl)c1.Cl (stereo not drawn) [KHG24531, (2-cyclohexylimino-3-methyl-1,3-thiazolidine-4-yl)-N-(3,4-dichlorophenyl)-acetamide hydrochloride]	223	48.4
CN1C(=NC2CCCCC2)SCC1CC(=O)Nc1cc(Cl)ccc1Cl.Cl (stereo not drawn) [KHG24532, (2-cyclohexylimino-3-methyl-1,3-thiazolidine-4-yl)-N-(2,5-dichlorophenyl)-acetamide hydrochloride]	208	52.5
CN1C(=NC2CCCCC2)SCC1CC(=O)Nc1cc(Cl)c(Cl)cc1Cl.Cl (stereo not drawn) [KHG24533, (2-cyclohexylimino-3-methyl-1,3-thiazolidine-4-yl)-N-(2,4,5-trichlorophenyl)-acetamide hydrochloride]	186	48.9
CN1C(=NC2CCCCC2)SCC1CC(=O)Nc1cc(F)cc(F)c1.Cl (stereo not drawn) [KHG24534, (2-cyclohexylimino-3-methyl-1,3-thiazolidine-4-yl)-N-(3,5-difluorophenyl)-acetamide hydrochloride]	240	45.7

Continued, values first:

melting point [°C]	inhibition at 10 µM [1] [%]	Compound
262 to 264	51.6	CC1SC(=NC2CCCCC2)N(C)C1CC(=O)Nc1ccc(Cl)cc1 (stereo not drawn) [KHG24480, (2-cyclohexylimino-3,5-dimethyl-1,3-thiazolidine-4-yl)-N-(4-chlorophenyl)-acetamide]
260 to 262	52.4	CC1SC(=NC2CCCCC2)N(C)C1CC(=O)Nc1ccc(Br)cc1 (stereo not drawn) [KHG24482, (2-cyclohexylimino-3,5-dimethyl-1,3-thiazolidine-4-yl)-N-(4-bromophenyl)-acetamide]
253 to 254	55.8	CC1SC(=NC2CCCCCC2)N(C)C1CC(=O)Nc1ccc(Br)cc1 (stereo not drawn) [KHG24486, (2-cycloheptylimino-3,5-dimethyl-1,3-thiazolidine-4-yl)-N-(4-bromophenyl)-acetamide]
247 to 249	54.6	CCCCc1ccc(NC(=O)CC2C(C)SC(=NC3CCCCCC3)N2C)cc1.Cl (stereo not drawn) [KHG24516, (2-cycloheptylimino-3,5-dimethyl-1,3-thiazolidine-4-yl)-N-(4-n-butylphenyl)-acetamide hydrochloride]
262 to 264	49.6	CCc1ccc(NC(=O)CC2C(C)SC(=NC3CCCCCC3)N2C)cc1.Cl (stereo not drawn) [KHG24517, (2-cycloheptylimino-3,5-dimethyl-1,3-thiazolidine-4-yl)-N-(4-ethylphenyl)-acetamide hydrochloride]
229 to 231	50.7	CC1SC(=NC2CCCCCC2)N(C)C1CC(=O)Nc1ccc(F)cc1.Cl (stereo not drawn) [KHG24518, (2-cycloheptylimino-3,5-dimethyl-1,3-thiazolidine-4-yl)-N-(4-fluorophenyl)-acetamide hydrochloride]
260 to 262	55.7	CC(C)c1ccc(NC(=O)CC2C(C)SC(=NC3CCCCCC3)N2C)cc1.Cl (stereo not drawn) [KHG24519, (2-cycloheptylimino-3,5-dimethyl-1,3-thiazolidine-4-yl)-N-(4-isopropylphenyl)-acetamide hydrochloride]
239 to 241	54.3	CC1SC(=NC2CCCCCC2)N(C)C1CC(=O)Nc1ccc(C(C)(C)C)cc1.Cl (stereo not drawn) [KHG24521, (2-cycloheptylimino-3,5-dimethyl-1,3-thiazolidine-4-yl)-N-(4-t-butylphenyl)-acetamide hydrochloride]
265 to 266	46.3	CCc1ccc(NC(=O)CC2C(C)SC(=NC3CCCCC3)N2C)cc1.Cl (stereo not drawn) [KHG24523, (2-cyclohexylimino-3,5-dimethyl-1,3-thiazolidine-4-yl)-N-(4-ethylphenyl)-acetamide hydrochloride]
178 to 180	41.3	CC1SC(=NC2CCCCC2)N(C)C1CC(=O)Nc1ccc(OC(F)(F)F)cc1.Cl (stereo not drawn) [KHG24524, (2-cyclohexylimino-3,5-dimethyl-1,3-thiazolidine-4-yl)-N-(4-trifluoromethoxyphenyl)-acetamide hydrochloride]
267 to 269	31.5	CC1SC(=NC2CCCCC2)N(C)C1CC(=O)Nc1ccc(F)cc1.Cl (stereo not drawn) [KHG24525, (2-cyclohexylimino-3,5-dimethyl-1,3-thiazolidine-4-yl)-N-(4-fluorophenyl)-acetamide hydrochloride]
265 to 267	42.3	CC(C)c1ccc(NC(=O)CC2C(C)SC(=NC3CCCCC3)N2C)cc1.Cl (stereo not drawn) [KHG24526, (2-cyclohexylimino-3,5-dimethyl-1,3-thiazolidine-4-yl)-N-(4-isopropylphenyl)-acetamide hydrochloride]
190 to 192	47	CC1SC(=NC2CCCCC2)N(C)C1CC(=O)Nc1ccc(C(F)(F)F)cc1.Cl (stereo not drawn) [KHG24527, (2-cyclohexylimino-3,5-dimethyl-1,3-thiazolidine-4-yl)-N-(4-trifluoromethylphenyl)-acetamide hydrochloride]
